Target: T1, E1 and His-E2 Ubch10 (Homo sapiens, UniProt P22314)
T1 construct: host or cells: E. coli (His-Ubch10); Sf9 insect cells (E1)
T1 sequence (P22314 1-1058): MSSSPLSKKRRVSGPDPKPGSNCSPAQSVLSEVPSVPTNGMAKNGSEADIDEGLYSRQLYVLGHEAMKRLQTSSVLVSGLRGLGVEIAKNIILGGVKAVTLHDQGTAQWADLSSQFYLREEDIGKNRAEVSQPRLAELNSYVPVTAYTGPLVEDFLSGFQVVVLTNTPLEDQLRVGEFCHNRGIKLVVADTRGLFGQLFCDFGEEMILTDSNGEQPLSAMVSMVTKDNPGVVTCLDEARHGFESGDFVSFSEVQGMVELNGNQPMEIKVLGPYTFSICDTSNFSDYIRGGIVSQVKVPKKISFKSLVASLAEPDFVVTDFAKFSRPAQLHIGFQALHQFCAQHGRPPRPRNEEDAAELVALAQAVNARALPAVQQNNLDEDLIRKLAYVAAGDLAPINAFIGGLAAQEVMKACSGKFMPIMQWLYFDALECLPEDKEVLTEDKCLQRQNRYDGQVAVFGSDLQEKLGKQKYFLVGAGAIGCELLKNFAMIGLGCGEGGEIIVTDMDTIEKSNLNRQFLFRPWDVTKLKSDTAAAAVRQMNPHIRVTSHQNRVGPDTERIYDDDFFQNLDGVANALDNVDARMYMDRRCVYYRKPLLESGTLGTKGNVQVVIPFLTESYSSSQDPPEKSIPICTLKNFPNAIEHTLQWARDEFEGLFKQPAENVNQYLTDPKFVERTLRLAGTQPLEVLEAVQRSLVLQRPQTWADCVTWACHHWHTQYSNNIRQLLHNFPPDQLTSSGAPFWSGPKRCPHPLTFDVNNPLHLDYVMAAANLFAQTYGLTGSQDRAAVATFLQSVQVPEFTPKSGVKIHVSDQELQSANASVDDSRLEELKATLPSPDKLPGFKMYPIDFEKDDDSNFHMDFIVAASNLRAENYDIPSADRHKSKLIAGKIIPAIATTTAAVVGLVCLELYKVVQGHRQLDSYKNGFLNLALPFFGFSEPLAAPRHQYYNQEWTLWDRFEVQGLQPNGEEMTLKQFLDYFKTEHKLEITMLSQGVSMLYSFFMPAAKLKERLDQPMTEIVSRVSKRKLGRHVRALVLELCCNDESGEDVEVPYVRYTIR
Experiment: E1 to E2 transfer assay, His-E2 Ubch10, 1.0 μM ATP (low ATP)
Type: biochemical
Conditions: Table 5, ATP inhibition properties; inhibition measured using IC50 values
How it was run: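 His-Ubch10 (20 ng/well), E1 (10 ng/well) and Flag-ubiquitin (100 ng) reacted 1 h at room temperature on nickel plates in 62.5 mM Tris pH 7.5, 0.75 mM DTT, 1.0 μM ATP with inhibitor. E2-ubiquitin complex detected by anti-Flag/HRP luminescence; IC50 determined.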

SMILES | UBC10
COc1ccc2nc(NC(=O)c3ccccc3)sc2n1 [Compound 139, N-(5-methoxythiazolo[5,4-b]pyridin-2-yl)benzamide] | −− (−− indicates marginal or no inhibition detected with this assay)
COc1ccc2nc(NC(=O)c3ccc(Cl)cc3Cl)sc2n1 [Compound 140, 2,4-dichloro-N-(5-methoxythiazolo[5,4-b]pyridin-2-yl)benzamide] | −− (−− indicates marginal or no inhibition detected with this assay)
COc1ccc2nc(NC(=O)c3cccc(F)c3)sc2n1 [Compound 141, 3-fluoro-N-(5-methoxythiazolo[5,4-b]pyridin-2-yl)benzamide] | ++ (++ indicates inhibition at 50 μM or or less)
COc1ccc2nc(NC(=O)c3cccc(Cl)c3)sc2n1 [Compound 142, 3-chloro-N-(5-methoxythiazolo[5,4-b]pyridin-2-yl)benzamide] | ++ (++ indicates inhibition at 50 μM or or less)
COc1ccc2nc(NC(=O)c3sccc3Cl)sc2n1 [Compound 144, 3-chloro-N-(5-methoxythiazolo[5,4-b]pyridin-2-yl)thiophene-2-carboxamide] | −− (−− indicates marginal or no inhibition detected with this assay)
COc1ccc2nc(NC(=O)c3c(F)cccc3F)sc2n1 [Compound 145, 2,6-difluoro-N-(5-methoxythiazolo[5,4-b]pyridin-2-yl)benzamide] | −− (−− indicates marginal or no inhibition detected with this assay)
COc1ccc2nc(NC(=O)c3ccc(F)c(F)c3)sc2n1 [Compound 146, 3,4-difluoro-N-(5-methoxythiazolo[5,4-b]pyridin-2-yl)benzamide] | ++ (++ indicates inhibition at 50 μM or or less)
COc1ccc2nc(NC(=O)c3ccc(C(F)(F)F)cc3)sc2n1 [Compound 147, N-(5-methoxythiazolo[5,4-b]pyridin-2-yl)-4-(trifluoromethyl)benzamide] | −− (−− indicates marginal or no inhibition detected with this assay)
COc1ccc2nc(NC(=O)c3ccc(NC(C)=O)cc3)sc2n1 [Compound 149, 4-acetamido-N-(5-methoxythiazolo[5,4-b]pyridin-2-yl)benzamide] | ++ (++ indicates inhibition at 50 μM or or less)
COc1ccc2nc(NC(=O)c3ccc([N+](=O)[O-])cc3)sc2n1 [Compound 150, N-(5-methoxythiazolo[5,4-b]pyridin-2-yl)-4-nitrobenzamide] | ++ (++ indicates inhibition at 50 μM or or less)
COc1ccc(C(=O)Nc2nc3ccc(OC)nc3s2)cc1 [Compound 151, 4-methoxy-N-(5-methoxythiazolo[5,4-b]pyridin-2-yl)benzamide] | ++ (++ indicates inhibition at 50 μM or or less)
COc1ccc2nc(NC(=O)c3ccc(C)cc3)sc2n1 [Compound 152, N-(5-methoxythiazolo[5,4-b]pyridin-2-yl)-4-methylbenzamide] | ++ (++ indicates inhibition at 50 μM or or less)
COc1ccc2nc(NC(=O)c3ccco3)sc2n1 [Compound 153, N-(5-methoxythiazolo[5,4-b]pyridin-2-yl)furan-2-carboxamide] | ++ (++ indicates inhibition at 50 μM or or less)
COc1ccc2nc(NC(=O)c3ccc(F)cc3)sc2n1 [Compound 154, 4-fluoro-N-(5-methoxythiazolo[5,4-b]pyridin-2-yl)benzamide] | ++ (++ indicates inhibition at 50 μM or or less)
COc1ccc2nc(NC(=O)c3ccc(Cl)cc3)sc2n1 [Compound 155, 4-chloro-N-(5-methoxythiazolo[5,4-b]pyridin-2-yl)benzamide] | ++ (++ indicates inhibition at 50 μM or or less)
O=C(Nc1nc2ccccc2s1)c1ccc([N+](=O)[O-])o1 [Compound 156, N-(benzo[d]thiazol-2-yl)-5-nitrofuran-2-carboxamide] | −− (−− indicates marginal or no inhibition detected with this assay)
O=C(Nc1nc2ccccc2s1)c1ccccc1Br [Compound 159, N-(benzo[d]thiazol-2-yl)-2-bromobenzamide] | ++ (++ indicates inhibition at 50 μM or or less)
